Assay results reported in a melting point compilation (Tetko et al.; mined from patent text by program, amines drawn as free bases though some values may be those of a salt).

Structure (SMILES)	melting point [°C]
NC[C@@H]1CCCc2cc(S(=O)(=O)Nc3cccc(F)c3)ccc21	122 to 123
O=C(Nc1cc(Cl)ccc1-c1nnn[nH]1)c1cnn(-c2ccc(Cl)cc2)c1C(F)(F)F	176 to 180
CC(C)(S)CN1CCN(Cc2ccc(O)cc2)CC1	81
O=C(Nc1ccc2nc3[nH]c(=O)[nH]c3cc2c1)c1ccccc1	> 300
CCOC(=O)CCCCC(=O)OCC1=C(C(=O)OCC)C(c2ccccc2Cl)C(C(=O)OCC)=C(C)N1 (stereo not given)	91 to 92
O=S1(=O)c2cccc3cccc(c23)N1CCCN1CC=C(c2c[nH]c3ccccc23)CC1	226
CCCCCCCCNC(=O)Nc1ccc(Nc2ccc(N(CC)CCNS(C)(=O)=O)cc2C)c2ccccc12	132 to 133
O=[N+]([O-])c1ccc(C#CBr)cc1	170
COc1cc(N)c(C(=O)O)c(OC)c1OC	88 to 91
COc1cc(C(=O)c2c[nH]c(-c3ccc(Cl)cc3)n2)cc(OC)c1OC	193 to 195
CC(CSc1cc(C(C)(C)C)c(O)c(C(C)(C)C)c1)C(=O)N1CCCC1 (stereo not given)	125 to 126
CCCOc1cc2c(cc1C(C)c1ccc(OC)cc1)OCO2 (stereo not given)	84
O=C(O)c1cn(-c2ccc(F)cc2)c2cc(N3CCNC(COc4ccccc4)C3)c(F)cc2c1=O (stereo not given)	204 to 207
O=C(c1cccc(Cl)c1)c1cccc(Cl)c1	117
O=[N+]([O-])C(F)(CCc1nnc(C(F)(F)C(F)(F)F)o1)[N+](=O)[O-]	3 to 5
NCC(O)C1=CC2(CC2)c2ccccc21 (stereo not given)	133 to 134
CCc1c(Br)c2ccccn2c1C(=O)c1cc(Br)c(O)c(Br)c1	195
CCCc1ncc(/C=C(\Cc2cccs2)C(=O)O)n1Cc1ccccc1Cl	200
CS(=O)(=O)c1ccc(C2=C(c3ccc(F)cc3)C(=O)N(C3CC3)C2)cc1	170 to 172
COc1cc(-n2c(=O)cc(C(F)(F)F)n(C)c2=O)c(F)cc1Br	154

Structure (SMILES)	melting point [°C]
CN(O)C(=O)NCc1cccs1	106 to 107
NNc1nnc(C=Cc2ccc([N+](=O)[O-])o2)s1	205 to 206
Cc1noc(NC(=O)C(c2ccccc2)c2ccccc2)n1	215
Cc1cc2cnn(-c3ccccc3)c2nc1OCc1ncnn1C	145 to 146
CC1(CBr)SC2C(NC(=O)Cc3ccccc3)C(=O)N2C1C(=O)OCC(Cl)(Cl)Cl (stereo not given)	90 to 93
CCn1cc(C2(c3cccc(-c4cncc(F)c4)c3)N=C(N)N(C)C2=O)cn1 (stereo not given)	216 to 220
CCOC(=O)C=C(Nc1ccc(O)c(=O)cc1)C(=O)OCC	108
COC(=O)C1Cc2ccccc2CC(C(=O)OC)C1=O (stereo not given)	100 to 110
Fc1cccc(Nc2nc(Cl)nc3nc[nH]c23)c1	> 250
CN(N)C1=Nc2ccc(Cl)cc2C(c2ccccc2)=NC1	167 to 173
O=C(CCc1ccncc1)NC(Cc1c[nH]c2ccccc12)C(=O)CCc1cc(C(F)(F)F)cc(C(F)(F)F)c1 (stereo not given)	108
CCN1CCN(C(=O)N2CCC(N3N=C(c4ccc(OC)c(OC)c4)[C@H]4CC=CC[C@H]4C3=O)CC2)C(=O)C1=O	226 to 228
CNc1nc(Nc2ccc(Cl)c(Cl)c2)ncc1NC(=O)c1ccccc1	265 to 267
N#CC1(c2ccc([N+](=O)[O-])cc2)CCCC1	76 to 77
CCOc1ccc2c(c1)C(N)(c1ccccc1Cl)C(=O)N2Cc1ccc(C(=O)NC(C)(C)CN(CC)CC)cc1 (stereo not given)	59
N#Cc1cc(O)ccc1[N+](=O)[O-]	200 to 202
CCCC(O)(Cn1nc[nH]c1=S)c1ccc(Cl)cc1Cl (stereo not given)	148
Fc1cc(F)c2c(c1)C[C@@H](n1ccn(CCc3ccccc3)c1=S)CC2	131 to 133
Cc1nc(-c2ccc(=O)n(C(C)C)n2)c(-c2ccccc2)nc1N	208 to 210
CCOC(=O)c1[nH]c2cc(Cl)cc(Cl)c2c1NCC(=O)c1cccc(F)c1	234 to 235
